Values after ≈ are worked out from the molar mass of the structure shown.
What was measured:
Mucor racemosus = test: Antifungal activity against Mucor racemosus KF223 NBRC4581 by agar dilution method; assay type: functional
Bacillus subtilis [1] = test: Antibacterial activity against Bacillus subtilis KB211 ATCC 6633 by agar dilution method; assay type: functional
Bacillus subtilis [2] = test: Antibacterial activity against Bacillus subtilis KB340 JCM1465 by agar dilution method; assay type: functional
Saccharomyces cerevisiae = test: Antifungal activity against Saccharomyces cerevisiae KF26 by agar dilution method; assay type: functional
[3] = test system: Staphylococcus epidermidis; test: Antibacterial activity against Staphylococcus epidermidis KB352 NBRC12993 by agar dilution method; assay type: functional
Kocuria rhizophila [4] = test: Antibacterial activity against Kocuria rhizophila KB212 ATCC 9341 by agar dilution method; assay type: functional
Pseudomonas aeruginosa [5] = test: Antibacterial activity against Pseudomonas aeruginosa KB359 NBRC12582 by agar dilution method; assay type: functional
Serratia marcescens = test: Antibacterial activity against Serratia marcescens KB215 IAM1021 by agar dilution method; assay type: functional
Escherichia coli [6] = test: Antibacterial activity against Escherichia coli KB336 JCM5491 by agar dilution method; assay type: functional
Candida albicans = test: Antifungal activity against Candida albicans KF1 by agar dilution method; assay type: functional
Klebsiella pneumoniae [7] = test: Antibacterial activity against Klebsiella pneumoniae KB214 ATCC 10031 by agar dilution method; assay type: functional
Kocuria rhizophila [8] = test: Antibacterial activity against Kocuria rhizophila KB354 NBRC12708 by agar dilution method; assay type: functional
Escherichia coli [9] = test: Antibacterial activity against Escherichia coli KB213 NIHJ by agar dilution method; assay type: functional
Staphylococcus aureus [10] = test: Antibacterial activity against Staphylococcus aureus KB349 MRSA K24 by agar dilution method; assay type: functional
Proteus mirabilis = test: Antibacterial activity against Proteus mirabilis KB125 NBRC3849 by agar dilution method; assay type: functional
Staphylococcus aureus [11] = test: Antibacterial activity against Staphylococcus aureus KB210 ATCC 6538p by agar dilution method; assay type: functional
Bacillus cereus = test: Antibacterial activity against Bacillus cereus KB143 NBRC3001 by agar dilution method; assay type: functional
Aspergillus niger = test: Antifungal activity against Aspergillus niger KF104 ATCC 9643 by agar dilution method; assay type: functional
Klebsiella pneumoniae [12] = test: Antibacterial activity against Klebsiella pneumoniae KB357 NBRC357 by agar dilution method; assay type: functional
Comamonas terrigena = test: Antibacterial activity against Comamonas terrigena KB358 NBRC13299 by agar dilution method; assay type: functional
Micrococcus luteus = test: Antibacterial activity against Micrococcus luteus KB453 NBRC13867 by agar dilution method; assay type: functional
Bacillus subtilis [13] = test: Antibacterial activity against Bacillus subtilis KB355 NBRC3134 by agar dilution method; assay type: functional
Staphylococcus aureus [14] = test: Antibacterial activity against Staphylococcus aureus KB335 JCM2151 by agar dilution method; assay type: functional
Pseudomonas aeruginosa [15] = test: Antibacterial activity against Pseudomonas aeruginosa KB115 NBRC3080 by agar dilution method; assay type: functional
Escherichia coli [16] = test: Antibacterial activity against Escherichia coli KB176 NIHJ JC-2 by agar dilution method; assay type: functional
[17] = test system: Mycolicibacterium smegmatis; test: Antibacterial activity against Mycobacterium smegmatis KB42 ATCC 607 by agar dilution method; assay type: functional
Proteus vulgaris = test: Antibacterial activity against Proteus vulgaris KB127 IF03167 by agar dilution method; assay type: functional
Aspergillus oryzae = test: Antifungal activity against Aspergillus oryzae KF439 by agar dilution method; assay type: functional
Salmonella typhimurium = test: Antibacterial activity against Salmonella typhimurium KB20 by agar dilution method; assay type: functional, Salmonella enterica subsp. enterica serovar Typhimurium; conditions: Salmonella enterica

CCCCCC1OC(=O)Cc2cc(OC)c(O)c(O)c21 (racemic)
MIC (Mucor racemosus): 100 µg/mL (≈ 357 µM) | MIC (Bacillus subtilis [1]): 100 µg/mL (≈ 357 µM) | MIC (Bacillus subtilis [2]): 50 µg/mL (≈ 178 µM) | MIC (Saccharomyces cerevisiae): 12.5 µg/mL (≈ 44.6 µM) | MIC [3]: 50 µg/mL (≈ 178 µM) | MIC (Kocuria rhizophila [4]): 50 µg/mL (≈ 178 µM) | MIC (Pseudomonas aeruginosa [5]): 100 µg/mL (≈ 357 µM) | MIC (Serratia marcescens): > 100 µg/mL | MIC (Escherichia coli [6]): > 100 µg/mL | MIC (Candida albicans): 25 µg/mL (≈ 89.2 µM) | MIC (Klebsiella pneumoniae [7]): > 100 µg/mL | MIC (Kocuria rhizophila [8]): 50 µg/mL (≈ 178 µM) | MIC (Escherichia coli [9]): 100 µg/mL (≈ 357 µM) | MIC (Staphylococcus aureus [10]): 50 µg/mL (≈ 178 µM) | MIC (Proteus mirabilis): 100 µg/mL (≈ 357 µM) | MIC (Staphylococcus aureus [11]): 50 µg/mL (≈ 178 µM) | MIC (Bacillus cereus): 50 µg/mL (≈ 178 µM) | MIC (Aspergillus niger): 50 µg/mL (≈ 178 µM) | MIC (Klebsiella pneumoniae [12]): > 100 µg/mL | MIC (Comamonas terrigena): 50 µg/mL (≈ 178 µM) | MIC (Micrococcus luteus): 50 µg/mL (≈ 178 µM) | MIC (Bacillus subtilis [13]): 50 µg/mL (≈ 178 µM) | MIC (Staphylococcus aureus [14]): 50 µg/mL (≈ 178 µM) | MIC (Pseudomonas aeruginosa [15]): 100 µg/mL (≈ 357 µM) | MIC (Escherichia coli [16]): > 100 µg/mL | MIC [17]: 50 µg/mL (≈ 178 µM) | MIC (Proteus vulgaris): 50 µg/mL (≈ 178 µM) | MIC (Aspergillus oryzae): 50 µg/mL (≈ 178 µM) | MIC (Salmonella typhimurium): > 100 µg/mL
